# Measured values published in paper PMC6984391, “Anion carriers as potential treatments for cystic fibrosis: transport in cystic fibrosis cells, and additivity to channel-targeting drugs” (Chemical Science, 2019).
# Assays:
# [1] = Affinity to Cl- in chloroform by extraction of Et4N+Cl- from water; format: binding; conditions: extraction of Et4N^+Cl^– from water into chloroform at 303 K; new compound or new data
# Protocol: Measurement of affinities to Et4N+Cl- in chloroform through extraction from […]
# This method is adapted from Clare et al..4 The Et4N+Cl- salt was obtained from Sigma Aldrich and dried under vacuum overnight prior to solution preparation using deionised water that had been passed through a Millipore filtration system. All host solutions were prepared using chloroform that had been deacidified by passage through a flash chromatography column containing basic alumina.
# A solution of host in deacidified chloroform was combined with 10 mL of aqueous Et4N+Cl-guest solution in a sample tube (30 mL). Concentrations and volumes are specified in Table
# S1. A magnetic stirring bar (2 cm) was added to the tube and the lower half was immersed in a water bath heated to 303 K, while the contents were stirred vigorously to achieve good mixing of the two phases. After 30 minutes, stirring was stopped and the two phases were allowed to separate. The majority of the aqueous phase was then removed using a pipette and the remaining organic phase was centrifuged for 10 minutes at 4000 rpm. The chloroform solution was then filtered through Whatman 1PS hydrophobic filter paper to remove any remaining aqueous phase. Solvent from the filtrate was then removed in vacuo and the solid was further dried under vacuum. The resulting solids from the extraction experiments were dissolved in acetone-d6 and the solutions were analysed with 1H NMR spectroscopy.
# A value for the molar ratio (R) was determined by integrating the signal at δ = 3.5 ppm (CH2 of Et4N+Cl-) against one of the receptor signals.
# The values for R obtained from the 1H NMR spectra were used to calculate values for the equilibrium extraction constants Ke:
# Horg + Xaq− + Yaq+ ⇌HX−Yorg+ Ke = org […]
# To convert the extraction constants Ke into association constants Ka it is necessary to obtain the distribution constants Kd for the substrates between aqueous and organic phases:
# The Kd value for tetraethylammonium chloride partitioning between water and chloroform has been determined and reported previously to be 1.269 × 10-5 M-1.5
# The binding constant Ka is then calculated from Ke and Kd:
# H + X−Y+ ⇌ HX−Y+ K = org = e […]
# When [G] > 100 mM, the amount of salt that migrates from the aqueous phase into the organic phase without assistance of the host has to be taken into account by correcting the measured […]
# Table S1. Overview of the conditions and results from the extraction experiments Receptor [H] (mM) [G] (mM) Vorg (mL) Vaq (mL) Rmeasured Ka (M-1)
# YFP-CFBE cells = assay: YFP fluorescence plate reader assay of anion transport in YFP-CFBE cells; format: cell-based; conditions: for anion transport in YFP-CFBE cells (in words) / concentration–response relationship in YFP-CFBE compared with YFP-FRT cells: 1–50 μM; for anionophore concentration matching the effect of UTP (1 mM): anion transport equivalent to CaCC activation, YFP-CFBE cells; for effect of CaCC activation on anionophore-mediated anion transport: anionophore 50 μM with UTP 1 mM; for effect of CaCCinh-A01 on transport by anionophore: anionophore 50 μM, CaCCinh-A01 10 μM
# Source text: To begin to test anionophores in CF airway epithelial cells, we utilised the CF bronchial epithelial cell line CFBE41o^– engineered to express YFP-H148Q/I152L (YFP-CFBE cells).[34],[35] One advantage of using YFP-CFBE cells is that they endogenously express the Ca^2+-activated Cl^– channel (CaCC), unlike YFP-FRT cells.[33] Thus, using YFP-CFBE cells, we directly compared anion transport by anionophores with that of the CaCC, an alternative pathway to restore anion transport in CF.[13]
# FRT cells stably expressing the halide sensor YFP-H148Q/I152L6 were generous gifts of AS Verkman (University of California, San Francisco), while CFBE41o- cells7 stably expressing YFP (YFP-CFBE cells) were a generous gift of LJV Galietta (Telethon Institute for Genetics and Medicine). YFP-FRT cells were cultured as described previously for FRT cells8 except that media contained 10% fetal bovine serum, 2 mM L-glutamine and the selection agent G418 (YFP-FRT cells, 0.5 mg ml-1; WT-CFTR-YFP-FRT cells, 0.75 mg ml-1) or zeocin (F508del-CFTR-YFP-FRT cells, 0.5 mg ml-1). YFP-CFBE cells were cultured in minimal essential medium (MEM) supplemented with 10% fetal bovine serum, 2 mM L-glutamine, 100 U ml-1 penicillin and […] streptomycin. All cells were incubated at 37 °C in a humidified atmosphere with 5% CO2.
# For fluorescence microplate reader studies, cells were seeded in 96-well plates and grown in culture media at 37 °C in a humidified atmosphere with 5% CO2 for 3 – 4 days until […]
# 90% confluent. […]
# Fluorescence plate reader assay […]
# quenching of YFP fluorescence at 37 °C using a microplate reader following the method of Galietta et al..9 The microplate reader (model: FLUORstar Omega; BMG LABTECH Ltd., Aylesbury, UK) was equipped with a syringe pump and excitation (500 ± 10 nm) and emission (535 ± 15 nm) filters (Chroma Technology GmbH, Olching, Germany). After washing cells twice with PBS (composition (mM): 137 NaCl, 2.7 KCl, 8.1 Na2HPO4, 1.5 KH2PO4, 1 CaCl2 and 0.5 MgCl2, pH 7.40), cells were incubated with test anionophores (1 – 50 µM) or the vehicle (DMSO [0.1 – 0.5% v v-1]) in 40 µl of PBS for 10 – 120 minutes according to the experimental design. Other compounds, including forskolin, ivacaftor and channel inhibitors were added to […]
# the PBS bathing cells 10 minutes prior to PBS iodide addition, whereas UTP was added to cells with the PBS iodide solution. Fluorescence was measured for 14 seconds; 2 seconds before and 12 seconds after injection of 110 µl PBS iodide solution (137 mM Cl- replaced by I-) into each well (to obtain a final concentration of I- of 100 mM).
# We expressed cell fluorescence values (F) relative to the fluorescence value immediately before I- injection (F0), excluding the initial decrease, which likely represents the quenching of extracellular YFP released from cells and signal reduction accompanying the increase in solution volume bathing cells. To quantify anion transport by test anionophores, we determined the initial slope of the fluorescence decay following I - addition by fitting first order exponential functions to the last 12 seconds of each fluorescence recording. In each experim ent, n values represent the mean of two replicates and all treatments were tested at least three times using different microplates. […]
# FRT cells was selected and the cells were perfused with (i) PBS for 5 minutes then (ii) PBS containing I- (10 mM) (made by preparing PBS with 127 mM NaCl to maintain osmolarity) for 5 minutes and finally (iii) PBS for 30 minutes to remove thoroughly I- from the perfusion chamber. YFP-FRT cells were repeatedly treated with I- (10 mM) and then washed with PBS […]
# During all interventions, the rate of solution perfusion was 8 – 10 ml min-1; temperature was 37 °C and except for the first 15 minutes of PBS washing, no data were collected between cycles of I- perfusion and PBS […]
# For cell fluorescence measurements, we used the Volocity (Improvision) data acquisition and analysis system and a cooled CCD camera (Hamamatsu ORCA ER firewall) […]
# [2] = design: method as in ref [16 and 25], [20], [21], [22], [23], [24], [29] (Reference column); conditions: 1H NMR titrations with Bu4N^+Cl^– in DMSO-d6/H2O (200 : 1) at 298 K; ref [16 and 25], [20], [21], [22], [23], [24], [29]; cited from earlier work
Structure (SMILES),K a to Cl^– in CHCl3 [1],effect of increasing incubation period from 10 to 120 minutes on anion transport (YFP-CFBE cells; 10 μM),effect of increasing incubation period from 10 to 120 minutes on anion transport (YFP-CFBE cells; 50 μM),anion transport in YFP-CFBE cells (in words) (YFP-CFBE cells),concentration–response relationship in YFP-CFBE compared with YFP-FRT cells (YFP-CFBE cells),anionophore concentration matching the effect of UTP (1 mM) (YFP-CFBE cells),effect of CaCC activation on anionophore-mediated anion transport (YFP-CFBE cells),effect of CaCCinh-A01 on transport by anionophore (YFP-CFBE cells),K a to Cl^– in DMSO [2]
COCCOCCOC(=O)[C@]12CC[C@@H](NC(=O)Nc3ccc(C(F)(F)F)cc3)C[C@@H]1C[C@@H](NC(=O)Nc1ccc(C(F)(F)F)cc1)CC2 [Compound 9],1.4 × 10^8 M^–1,–,–,–,–,–,–,–,–
COCCOCCOC(=O)[C@]12CC[C@@H](NC(=O)Nc3cc(C(F)(F)F)cc(C(F)(F)F)c3)C[C@@H]1C[C@@H](NC(=O)Nc1cc(C(F)(F)F)cc(C(F)(F)F)c1)CC2 [Compound 10],2.5 × 10^8 M^–1,–,–,–,–,–,–,–,–
CCOC(=O)[C@]12CC[C@@H](NC(=S)Nc3ccc([N+](=O)[O-])cc3)C[C@@H]1C[C@@H](NC(=S)Nc1ccc([N+](=O)[O-])cc1)CC2 [Compound 12],–,increased noticeably,dramatic acceleration,mediated anion transport,identical,1 µM,either without effect or weakly additive,not observed,–
CCCCCCCCOC(=O)[C@]12CC[C@@H](NC(=S)Nc3ccc([N+](=O)[O-])cc3)C[C@@H]1C[C@@H](NC(=S)Nc1ccc([N+](=O)[O-])cc1)CC2 [Compound 13],1.5 × 10^9 M^–1,–,–,–,–,–,–,–,–
CCOC(=O)[C@]12CC[C@@H](NC(=S)Nc3cc(C(F)(F)F)cc(C(F)(F)F)c3)C[C@@H]1C[C@@H](NC(=S)Nc1cc(C(F)(F)F)cc(C(F)(F)F)c1)CC2 [Compound 15],–,–,–,mediated anion transport,less efficacious,1 µM,either without effect or weakly additive,not observed,2.4 × 10^3 M^–1
FC(F)(F)c1ccc(NC(=S)NCCN(CCNC(=S)Nc2ccc(C(F)(F)F)cc2)CCNC(=S)Nc2ccc(C(F)(F)F)cc2)cc1 [Compound 18],1.5 × 10^7 ^b M^–1,–,–,–,–,–,–,–,9.6 × 10^2 M^–1
FC(F)(F)c1cc(NC(=S)NCCN(CCNC(=S)Nc2cc(C(F)(F)F)cc(C(F)(F)F)c2)CCNC(=S)Nc2cc(C(F)(F)F)cc(C(F)(F)F)c2)cc(C(F)(F)F)c1 [Compound 19],1.5 × 10^9 ^b M^–1,increased noticeably,increased noticeably,mediated anion transport,similar,1 µM,strongly additive,direct inhibitory effect,4.4 × 10^3 M^–1
